Data from PubChem BioAssay AID248 (DTP/NCI, 2004).
Where “and” joins values, the source holds several entries; their conditions need not be identical. Equal entries are not always repeated. Toxic doses and inconclusive results are not listed. Rule as the data show it: active = T/C of 150% or more; inactive = T/C below 125%.

Test system: L1210 leukemia ip in BDF1 mice, survival T/C
Assay: NCI In Vivo Anticancer Drug Screen. Data for tumor model L1210 Leukemia (intraperitoneal) in B6D2F1 (BDF1) mice
Conditions: endpoint: mean survival time, higher = longer survival
Summary of the method: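 Antitumor effect is assessed in tumor-bearing animals. Survival in the compound arm is compared with a vehicle-dosed control arm and expressed as their quotient.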

[1] = dose: 100.0 mg/kg/injection, schedule: Q04DX002 (ip), vehicle: saline
[2] = dose: 100.0 mg/kg/injection, schedule: Q01DX009 (ip), vehicle: Klucel (hydroxypropylcellulose) (HPC)
[3] = dose: 100.0 mg/kg/injection, schedule: Q04DX003 (ip), vehicle: Klucel (hydroxypropylcellulose) (HPC)
[4] = dose: 200.0 mg/kg/injection, schedule: Q01DX009 (ip), vehicle: Klucel (hydroxypropylcellulose) (HPC)
[5] = dose: 200.0 mg/kg/injection, schedule: Q04DX003 (ip), vehicle: Klucel (hydroxypropylcellulose) (HPC)
[6] = dose: 400.0 mg/kg/injection, schedule: Q01DX009 (ip), vehicle: Klucel (hydroxypropylcellulose) (HPC)
[7] = dose: 400.0 mg/kg/injection, schedule: Q04DX003 (ip), vehicle: Klucel (hydroxypropylcellulose) (HPC)
[8] = dose: 100.0 mg/kg/injection, schedule: Q01DX001 (ip), vehicle: carboxymethylcellulose (CMC)
[9] = dose: 200.0 mg/kg/injection, schedule: Q01DX001 (ip), vehicle: carboxymethylcellulose (CMC)
[10] = dose: 12.5 mg/kg/injection, schedule: Q01DX009 (ip), vehicle: Klucel (hydroxypropylcellulose) (HPC)
[11] = dose: 25.0 mg/kg/injection, schedule: Q01DX009 (ip), vehicle: Klucel (hydroxypropylcellulose) (HPC)
[12] = dose: 50.0 mg/kg/injection, schedule: Q01DX009 (ip), vehicle: Klucel (hydroxypropylcellulose) (HPC)

Measured: T/C

O=C(NCCc1ccccc1)Nc1ccccc1
inactive: dose: 75.0 mg/kg/injection, schedule: Q01DX009 (ip), vehicle: saline with Tween-80 100 % of control | dose: 75.0 mg/kg/injection, schedule: Q04DX003 (ip), vehicle: saline with Tween-80 92 % of control | dose: 150.0 mg/kg/injection, schedule: Q01DX009 (ip), vehicle: saline with Tween-80 90 % of control | dose: 150.0 mg/kg/injection, schedule: Q04DX003 (ip), vehicle: saline with Tween-80 91 % of control | dose: 300.0 mg/kg/injection, schedule: Q01DX009 (ip), vehicle: saline with Tween-80 88 % of control | dose: 300.0 mg/kg/injection, schedule: Q04DX003 (ip), vehicle: saline with Tween-80 89 % of control

Cc1cn2nnnc2nc1-c1ccccc1O
inactive: dose: 100.0 mg/kg/injection, schedule: Q04DX002 (ip), vehicle: Klucel (hydroxypropylcellulose) (HPC) 98 % of control | dose: 200.0 mg/kg/injection, schedule: Q04DX002 (ip), vehicle: Klucel (hydroxypropylcellulose) (HPC) 91 % of control | dose: 400.0 mg/kg/injection, schedule: Q04DX002 (ip), vehicle: Klucel (hydroxypropylcellulose) (HPC) 94 % of control

C=C(CCC(=O)OC)C1=C(C)CC2OC(=O)C(=C)C2C1 (configuration not stated)
inactive: dose: 50.0 mg/kg/injection, schedule: Q04DX002 (ip), vehicle: saline 120 % of control | [1] 113 % of control | dose: 200.0 mg/kg/injection, schedule: Q04DX002 (ip), vehicle: saline 100 % of control

COc1ccc(COC(=O)Nc2ccc(Cl)c(Cl)c2)cc1OC
inactive: [2] 95 % of control | [3] 101 % of control | [4] 88 % of control | [5] 106 % of control | [6] 95 % of control | [7] 90 % of control

CC(=O)OC1CCC2(C)C(CCC3C(CCC(=O)O)C(C)(CC(C)C(=O)O)CCC32)C1 (configuration not stated)
inactive: dose: 100.0 mg/kg/injection, schedule: Q04DX003 (sc), vehicle: steriod suspending solution 116 % of control | dose: 200.0 mg/kg/injection, schedule: Q04DX003 (sc), vehicle: steriod suspending solution 109 % of control | dose: 400.0 mg/kg/injection, schedule: Q04DX003 (sc), vehicle: steriod suspending solution 113 % of control

CN(C)c1ccccc1C#N
inactive: dose: 100.0 mg/kg/injection, schedule: Q01DX009 (ip), vehicle: carboxymethylcellulose (CMC) 93 % of control and 103 % of control | dose: 100.0 mg/kg/injection, schedule: Q04DX002 (ip), vehicle: carboxymethylcellulose (CMC) 108 % of control | dose: 100.0 mg/kg/injection, schedule: Q04DX003 (ip), vehicle: carboxymethylcellulose (CMC) 106 % of control | dose: 200.0 mg/kg/injection, schedule: Q01DX009 (ip), vehicle: carboxymethylcellulose (CMC) 98 % of control and 104 % of control | dose: 200.0 mg/kg/injection, schedule: Q04DX002 (ip), vehicle: carboxymethylcellulose (CMC) 94 % of control | dose: 200.0 mg/kg/injection, schedule: Q04DX003 (ip), vehicle: carboxymethylcellulose (CMC) 101 % of control | dose: 400.0 mg/kg/injection, schedule: Q01DX009 (ip), vehicle: carboxymethylcellulose (CMC) 113 % of control | dose: 400.0 mg/kg/injection, schedule: Q04DX002 (ip), vehicle: carboxymethylcellulose (CMC) 115 % of control | dose: 400.0 mg/kg/injection, schedule: Q04DX003 (ip), vehicle: carboxymethylcellulose (CMC) 98 % of control

CCCCCCCCCCCCCCCCOc1ccc(C(=O)Nc2ccc(S(=O)(=O)Nc3cccc4ccccc34)cc2)cc1S(=O)(=O)F
inactive: [3] 102 % of control | [5] 100 % of control | [7] 93 % of control

CC1=CC(C)(C)Nc2cc(N)ccc21
inactive: dose: 75.0 mg/kg/injection, schedule: Q01DX001 (ip), vehicle: other 110 % of control | dose: 150.0 mg/kg/injection, schedule: Q01DX001 (ip), vehicle: other 105 % of control | dose: 300.0 mg/kg/injection, schedule: Q01DX001 (ip), vehicle: other 91 % of control

CC1(C)C2CCC(CCOC(=O)COc3ccc(Cl)cc3Cl)C1C2 (configuration not stated)
inactive: dose: 100.0 mg/kg/injection, schedule: Q01DX009 (ip), vehicle: saline with Tween-80 104 % of control | dose: 200.0 mg/kg/injection, schedule: Q01DX009 (ip), vehicle: saline with Tween-80 94 % of control

CC1(C)CN=C(c2ccc([N+](=O)[O-])cc2)S1
inactive: dose: 100.0 mg/kg/injection, schedule: Q01DX001 (ip), vehicle: Klucel (hydroxypropylcellulose) (HPC) 100 % of control | dose: 200.0 mg/kg/injection, schedule: Q01DX001 (ip), vehicle: Klucel (hydroxypropylcellulose) (HPC) 102 % of control | dose: 400.0 mg/kg/injection, schedule: Q01DX001 (ip), vehicle: Klucel (hydroxypropylcellulose) (HPC) 100 % of control

On1ccc(N2CCOCC2)cc1=Nc1ccccc1
inactive: dose: 100.0 mg/kg/injection, schedule: Q01DX001 (ip), vehicle: saline 96 % of control

CC(=O)N/N=C/c1ccc(N(C)C)cc1
inactive: [8] 94 % of control | [9] 94 % of control

CN1CC(=O)n2c(cc3ccccc32)C1=O
inactive: [1] 110 % of control | dose: 400.0 mg/kg/injection, schedule: Q04DX002 (ip), vehicle: saline 105 % of control

O=C1Nc2ccccc2C1=Nc1ccc2[nH]c3ccccc3c2c1
inactive: [8] 91 % of control | [9] 94 % of control | dose: 400.0 mg/kg/injection, schedule: Q01DX001 (ip), vehicle: carboxymethylcellulose (CMC) 91 % of control

COc1ccc(/C=N/NC(=O)c2ccccc2O)cc1
inactive: [2] 98 % of control | [4] 96 % of control | [6] 112 % of control

O=C1C(Cl)=C(Cl)C(=O)C2=C1C1c3ccccc3C2c2ccccc21
inactive: [3] 86 % of control | [5] 94 % of control | [7] 89 % of control

FC1(F)SC2CCCCCCC2C1(F)F (configuration not stated)
inactive: [10] 98 % of control | dose: 12.5 mg/kg/injection, schedule: Q04DX003 (ip), vehicle: Klucel (hydroxypropylcellulose) (HPC) 97 % of control | [11] 104 % of control | dose: 25.0 mg/kg/injection, schedule: Q04DX003 (ip), vehicle: Klucel (hydroxypropylcellulose) (HPC) 101 % of control | [12] 100 % of control | dose: 50.0 mg/kg/injection, schedule: Q04DX003 (ip), vehicle: Klucel (hydroxypropylcellulose) (HPC) 95 % of control

S=C(SSC(=S)N1CCCCC1)N1CCCCC1
inactive: dose: 100.0 mg/kg/injection, schedule: Q04DX003 (ip), vehicle: saline 104 % of control | dose: 200.0 mg/kg/injection, schedule: Q04DX003 (ip), vehicle: saline 98 % of control | dose: 400.0 mg/kg/injection, schedule: Q04DX003 (ip), vehicle: saline 101 % of control

C=CCc1ccc(OCCOCCNC2CC3CCC2(C)C3(C)C)c(OC)c1 (configuration not stated)
inactive: [3] 89 % of control

CC1(C)N=C(N)N=C(N)N1c1ccc(OCCCOc2ccc(S(=O)(=O)F)cc2)c(Cl)c1
inactive: dose: 25.0 mg/kg/injection, schedule: Q01DX009 (ip), vehicle: saline 100 % of control

CCC1(C)OC(C)C(C)O1 (configuration not stated)
inactive: dose: 50.0 mg/kg/injection, schedule: Q01DX009 (ip), vehicle: saline 100 % of control | dose: 100.0 mg/kg/injection, schedule: Q01DX009 (ip), vehicle: saline 107 % of control | dose: 200.0 mg/kg/injection, schedule: Q01DX009 (ip), vehicle: saline 104 % of control

Clc1cnc(C(Cl)(Cl)Cl)c(Cl)n1 (tested in a mixture with another compound)
inactive: [10] 94 % of control | [11] 97 % of control | [12] 100 % of control
